Experimental findings from patent publication US8258138B2, “Potassium channel blockers” (Xention Limited, priority 2008, dated 2012) are described below.

Assay [1] deals with T1, human Kv1.3 (Homo sapiens, UniProt P22001).
T1 construct: expressed in transfected cells; host or cells: stably transfected cells grown in medium for CHO cells
Put plainly: Kv1.3 Autopatch electrophysiology (whole cell patch-clamp, inhibition of charge movement). It counts as cell-based. The following applies: compound at 1 μM; cells stably transfected with human Kv1.3; room temperature; total charge during step to +30 mV relative to control; read-out: hKv1.3 % inh. The procedure, abridged: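 Whole-cell AutoPatch recordings were made at room temperature from cells held at −80 mV, with 500 ms steps to +30 mV every 15 s. The bath contained 10 mM KCl, pH 7.4, and the pipette K-gluconate/EGTA, pH 7.2.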

In assay [2] the target is hKv1.5 (Homo sapiens, UniProt P22460). Briefly: Kv1.5 Autopatch electrophysiology (whole cell patch-clamp). The class given is cell-based. Particulars: compound at 1 μM; room temperature (22-24° C.); total charge during step to 0 mV; read-out: hKv1.5 % inh. The protocol: Kv1.5 Autopatch Electrophysiology Method
Sequence of hKv1.5 (P22460 whole entry): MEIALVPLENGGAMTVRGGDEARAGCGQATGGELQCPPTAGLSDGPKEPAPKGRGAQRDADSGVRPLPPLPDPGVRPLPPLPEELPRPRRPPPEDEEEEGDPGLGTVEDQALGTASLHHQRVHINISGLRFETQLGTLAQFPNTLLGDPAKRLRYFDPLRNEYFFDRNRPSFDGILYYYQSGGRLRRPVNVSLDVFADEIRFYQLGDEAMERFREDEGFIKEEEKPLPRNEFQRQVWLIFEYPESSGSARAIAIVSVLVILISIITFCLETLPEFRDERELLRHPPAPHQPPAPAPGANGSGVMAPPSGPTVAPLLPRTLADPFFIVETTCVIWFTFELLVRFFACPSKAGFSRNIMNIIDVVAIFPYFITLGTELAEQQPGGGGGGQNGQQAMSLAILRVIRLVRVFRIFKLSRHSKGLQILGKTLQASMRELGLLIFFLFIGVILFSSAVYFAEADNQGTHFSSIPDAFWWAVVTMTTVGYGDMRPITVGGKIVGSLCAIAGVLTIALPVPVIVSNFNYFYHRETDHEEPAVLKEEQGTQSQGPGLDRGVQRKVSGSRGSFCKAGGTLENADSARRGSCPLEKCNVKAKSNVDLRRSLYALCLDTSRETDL
The external bathing solution contained (in mM): 150 NaCl, 10 KCl, […], 3 MgCl2, 1 CaCl2, 10 HEPES, pH 7.4. Patch pipettes were filled with an electrode solution of composition (in mM): 160 KCl, 0.5 MgCl2, 10 HEPES, 1 EGTA, pH 7.4 with KOH.
Compounds were dissolved in DMSO (100%) and made up in the external bather at a concentration of 1 μM. All experiments were conducted at room temperature (22-24° C.).
A cell suspension (10 ml), with a density of 100,000 cells/ml, was aliquoted into a 15 ml centrifuge tube and transferred to an incubator (37° C., 5% CO2) for approximately one hour before use. Following 60 min incubation, a tube was taken and centrifuged at 1000 rpm for 4 mins at room temperature. 9.5 ml supernatant was thence discarded, leaving a cell pellet at the bottom of the tube. The pellet was then resuspended using 100 μl of cold (4° C.), filtered (0.22 μm), 0.2% BSA/bather solution (0.02 g BSA/10 ml bather). The bottom of the tube was manually agitated gently until the solution became cloudy with cells. The 100 μl cell resuspension solution was then stored on the bench at 4° C. (using a Peltier-based temperature control device) until used.
A length of capillary glass (1B150F-4, WPI) was dipped into the cell suspension solution, such that ˜3 cm column of fluid was taken up by capillary action. A Ag/AgCl wire was dropped into the non-dipped end of the capillary also. The outside of the solution-filled end of the capillary was then dried and the capillary was loaded into the AutoPatch™.
Borosilicate glass patch pipettes (from 1.5 mm OD, thin-walled filamented, GC150-TF capillary glass, Harvard) were pulled using a DMZ pipette puller (Zeitz Instruments), and were back-filled using the internal pipette solution, being careful that no bubbles remain at the tip or in the body of the pipette. Patch pipettes typically had resistances of 2.3-3.5 MΩ. Once filled, the pipette tip and a proportion of the shaft (˜15 mm) were dipped into Sigmacote (Sigma). The recording pipette was then loaded into the AutoPatch™ Automated patch-clamping was initiated by the operator, but thereafter AutoPatch.exe continued the experiment providing that pre-set conditions and criteria were satisfied.
Whole cell patch-clamp recordings were made using the AutoPatch™ rig, which incorporated an EPC9 amplifier (HEKA, Germany) under control of Pulse software (v8.54, HEKA, Germany), a motion controller with 2 translators (Newport, UK), valve controller (VF1) and a c-level suction device all at room temperature (22-24° C.). This equipment was completely under the control of AutoPatch.exe and operator intervention was only made when there was a requirement to refill the drug reservoirs or to prevent the loss of a cell due to a technical error. Cells with an Rseries greater than 18 MΩ were discounted from the experiment.
Qualification stages prior to perfusion and drug application ensured that the observed current met the criteria for the experiment. Only those cells with an IK>500 pA were used for experiments. Cells were continuously perfused with external solution at a flow rate of 1.8-2 ml/minute. […] Online analysis of the hKv1.5 current during the application of compounds was performed by the AutoPatch™ software. Voltage-step protocols and analysis of data was performed as described for conventional electrophysiology.
Electrophysiology voltage-step protocols and analysis of data was performed as follows. Data was sampled at 5 kHz, and filtered with a −3 dB bandwidth of 2.5 kHz. Cells were held at a voltage of −80 mV. Currents were evoked to a voltage step for 1000 ms in duration at 0 mV every 5 s. Currents were analysed using Pulsefit software (v8.54, HEKA, Germany), with the total charge measured during the whole of the voltage step. All other plots were produced using Igor Pro (WaveMetrics).

T1 sequence (P22001 whole entry): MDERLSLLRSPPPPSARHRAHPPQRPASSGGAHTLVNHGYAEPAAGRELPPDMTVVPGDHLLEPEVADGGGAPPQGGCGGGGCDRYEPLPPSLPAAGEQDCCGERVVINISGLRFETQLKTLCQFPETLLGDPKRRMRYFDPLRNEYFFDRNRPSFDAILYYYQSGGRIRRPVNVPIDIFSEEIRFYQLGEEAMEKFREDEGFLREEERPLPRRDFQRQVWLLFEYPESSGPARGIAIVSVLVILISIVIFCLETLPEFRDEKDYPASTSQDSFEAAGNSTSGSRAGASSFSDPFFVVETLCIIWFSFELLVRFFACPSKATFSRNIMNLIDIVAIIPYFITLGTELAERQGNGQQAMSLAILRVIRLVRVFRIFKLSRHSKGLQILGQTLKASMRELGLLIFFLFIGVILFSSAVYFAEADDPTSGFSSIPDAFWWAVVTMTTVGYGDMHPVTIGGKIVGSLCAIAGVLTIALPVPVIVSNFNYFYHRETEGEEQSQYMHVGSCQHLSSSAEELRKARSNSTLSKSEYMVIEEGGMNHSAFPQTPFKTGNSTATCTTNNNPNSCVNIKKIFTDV

In the case of `Cn1cnc(S(=O)(=O)N(Cc2ccccc2)c2ccc(C(=O)N3CCN(c4ccccc4)CC3)cc2)c1` [Example 25, 1-Methyl-1H-imidazole-4-sulfonic acid benzyl-[4-(4-phenyl-piperazine-1-carbonyl)-phenyl]-amide], the inhibition at 1 µM stood at 68% in assay [1] and 58.8% in assay [2].
For `O=C(c1ccc(N(Cc2ccccc2)S(=O)(=O)c2ccccc2)cc1)N1CCC(O)(Cc2ccccc2)CC1` [Example 59, N-Benzyl-N-[4-(4-benzyl-4-hydroxy-piperidine-1-carbonyl)-phenyl]-benzenesulfonamide], the inhibition at 1 µM in assay [1] amounted to 87%; in assay [2], 40.1%.
`Cn1cnc(S(=O)(=O)N(Cc2ccc(Cl)cc2)c2ccc(C(=O)N3CCCC(Oc4ccccc4)C3)cc2)c1` (stereo not shown) [Example 62, 1-Methyl-1H-imidazole-4-sulfonic acid (4-chloro-benzyl)-[4-(3-phenoxy-piperidine-1-carbonyl)-phenyl]-amide]: the inhibition at 1 µM in assay [1] was 64%; in assay [2], 52.4%.
In the same order, the values of `Cc1ccccc1S(=O)(=O)N(Cc1ccccc1)c1ccc(C(=O)N2CCN(c3ccccc3)CC2)cc1` [Example 26, N-Benzyl-2-methyl-N-[4-(4-phenyl-piperazine-1-carbonyl)-phenyl]-benzenesulfonamide] are 82% and 85.5%.
On to `COc1ccc(S(=O)(=O)N(Cc2ccccc2)c2ccc(C(=O)N3CCN(c4ccccc4)CC3)cc2)cc1OC` [Example 14, N-Benzyl-3,4-dimethoxy-N-[4-(4-phenyl-piperazine-1-carbonyl)-phenyl]-benzenesulfonamide], for which the inhibition at 1 µM stood at 69% in assay [1] and 61.3% in assay [2].
On to `Cn1cnc(S(=O)(=O)N(Cc2ccc(Cl)cc2)c2ccc(C(=O)N3CCCC(c4ccccc4)C3)cc2)c1` (stereo not shown) [Example 61, 1-Methyl-1H-imidazole-4-sulfonic acid (4-chloro-benzyl)-[4-(3-phenyl-piperidine-1-carbonyl)-phenyl]-amide], for which the results for the inhibition at 1 µM in assay [1] and in assay [2] were 89% and 67.5%, respectively.
As for `O=C(c1ccc(N(Cc2ccccc2)S(=O)(=O)c2ccc3c(c2)OCCO3)cc1)N1CCN(c2ccccc2)CC1` [Example 15, 2,3-Dihydro-benzo[1,4]dioxine-6-sulfonic acid benzyl-[4-(4-phenyl-piperazine-1-carbonyl)-phenyl]-amide], the inhibition at 1 µM came to 66% in assay [1] and 80.4% in assay [2].
The matching figures for `O=C(c1ccc(N(Cc2ccccc2)S(=O)(=O)c2cccc(F)c2)cc1)N1CCN(c2ccccc2)CC1` [Example 21, N-Benzyl-3-fluoro-N-[4-(4-phenyl-piperazine-1-carbonyl)-phenyl]-benzenesulfonamide]: 70% and 70.9%.
In the same order, the values of `O=C(c1ccc(N(Cc2ccccc2)S(=O)(=O)c2cccc(Cl)c2)cc1)N1CCN(c2ccccc2)CC1` [Example 30, N-Benzyl-3-chloro-N-[4-(4-phenyl-piperazine-1-carbonyl)-phenyl]-benzenesulfonamide] are 92% and 85.6%.
With `Cn1cnc(S(=O)(=O)N(Cc2ccccc2)c2ccc(C(=O)N3CCOC(c4ccccc4)C3)cc2)c1` (stereo not shown) [Example 63, 1-Methyl-1H-imidazole-4-sulfonic acid benzyl-[4-(2-phenyl-morpholine-4-carbonyl)-phenyl]-amide], the inhibition at 1 µM was 93% in assay [1] and 74.4% in assay [2].
On to `COc1cccc(S(=O)(=O)N(Cc2ccccc2)c2ccc(C(=O)N3CCN(c4ccccc4)CC3)cc2)c1` [Example 28, N-Benzyl-3-methoxy-N-[4-(4-phenyl-piperazine-1-carbonyl)-phenyl]-benzenesulfonamide], for which the inhibition at 1 µM in assay [1] is 74%; in assay [2] it was 81.2%.
The matching figures for `O=C(c1ccc(N(Cc2ccccc2)S(=O)(=O)c2ccc(F)cc2)cc1)N1CCN(c2ccccc2)CC1` [Example 19, N-Benzyl-4-fluoro-N-[4-(4-phenyl-piperazine-1-carbonyl)-phenyl]-benzenesulfonamide]: 83% and 54.6%.
For `Cn1nccc1S(=O)(=O)N(Cc1ccccc1)c1ccc(C(=O)N2CCOC(c3ccccc3)C2)cc1` (stereo not shown) [Example 85, 2-Methyl-2H-pyrazole-3-sulfonic acid benzyl-[4-(2-phenyl-morpholine-4-carbonyl)-phenyl]-amide], the figures for the inhibition at 1 µM in assay [1] and in assay [2] were 94% and 47%, respectively.
On to `COc1cccc(CN(c2ccc(C(=O)N3CCN(c4ccccc4)CC3)cc2)S(=O)(=O)c2ccccc2)c1OC` [Example 51, N-(2,3-Dimethoxy-benzyl)-N-[4-(4-phenyl-piperazine-1-carbonyl)-phenyl]-benzenesulfonamide], for which the inhibition at 1 µM is 42% in assay [1] and 57.5% in assay [2].
